Experimental data reported in patent US20120245229A1, “METHOD FOR TREATING NEUROPATHIC PAIN” (priority 2009, published 2012).

Columns and labels:
[1] = tested on: paw incision-induced postoperative pain; assay: Postoperative pain model induced by hindpaw incision; format: in vivo, mice; conditions: postoperative pain model induced by surgical incision
Protocol: Animals and pain models. Adult CD1 mice (male, 25-32 g) were used for most experiments. Knockout mice were used lacking TNFR1/II (Tnfrsf1a/1b^−/−) and TRPV1 (Trpv1^−/−) and C57BL/6 wild-type control mice, all from Jackson, for some experiments. All animal procedures performed in this study were approved by the Harvard Medical Area Standing Committee on Animals. 20 μl of diluted formalin (5%), carrageenan (CRG, 1%), or complete Freund's adjuvant (CFA) were injected into the plantar surface of a hindpaw to produce acute, persistent, or chronic inflammatory pain, respectively. Postoperative pain was also produced through hindpaw incision^36 and neuropathic pain by ligation of the spinal nerve^37.
Behavioral analysis. Mice were habituated in the testing environment for two days and performed behavioral testing in a blinded manner. Formalin-evoked spontaneous inflammatory pain was assessed by measuring duration (seconds) animals spent on licking/flinching the affected paws every 5 min for 45 min. Capsaicin-induced spontaneous pain was aslo assessed for 10 min. […] It was determined the 50% paw withdrawal threshold using Dixon's up-down method^40. […] The percent maximal possible antinociceptive effect (% M.P.E) was calculated using the equation % M.P.E.=[(PL−BL2)/(BL1−BL2)]×100. […]

CRG-induced edema = assay: Carrageenan paw edema (paw volume, plethysmometer); format: in vivo, mice; conditions: intraplantar pretreatment; 4 h after CRG injection
Protocol: Measurement of paw volume. Paw swelling (edema) after carrageenan injection was determined by water displacement plethysmometer (Ugo Basile, Italy). The Plethysmometer is a microcontrolled volume meter, specially designed for accurate measurement of the rat/mouse paw swelling. It consists of a water filled Perspex cell into which the paw is dipped. A transducer of original design records small differences in water level, caused by volume displacement.

[2] = tested on: phosphorylation of ERK (pERK); assay: ERK phosphorylation (pERK) in cultured DRG neurons; format: cell-based, mice; conditions: dissociated DRG neurons; RvE1 10 ng/ml; TNF-α 10 ng/ml; capsaicin 500 nM
Protocol: Primary DRG culture. DRGs were aseptically removed from 4-week old mice and digested them first with collagenase (1.25 mg/ml)/dispase-II (2.4 units/ml) at 37° C. for 90 min then with 0.25% trypsin for 8 min at 37° C. DRG cells were mechanically dissociated with a flame polished Pasteur pipette in the presence of 0.05% DNAse I and plated these cells onto poly-D-lysine and laminin-coated slide chambers. DRG cells were grown in a neurobasal defined medium (with 2% B27 supplement, Invitrogen) in the presence of NGF (50 ng/ml) for 24 h and replaced the medium with NGF-free medium before stimulation. For immunocytochemistry, DRG cells were fixed with 4% paraformaldehyde for 30 min and incubated the cells with pERK primary antibody (rabbit, Cell signaling, 1:500) overnight.
(§1) Resolvins were also used for intraplantar injection. RvD1 or RvE1 was injected into the plantar surface of a hindapaw [20 ng, 20 μl , in 1% ethanol (Supplementary FIG. 5a, 5b) or in 10% ethanol (FIG. 2e, Supplementary FIG. 1d)]. […]
pERK immunocytochemistry in DRG neurons: DRG cells grown in slide chambers were fixed with 4% paraformaldehyde for 30 min and incubated with pERK primary antibody (Rabbit, Cell Signaling, 1:500) at 4° C. overnight. The stained cells were examined with a Nikon fluorescence microscope, and images in 3 randomly-selected optic fields from each chamber were captured with a CCD Spot camera. […]

ERK phosphorylation = ERK phosphorylation (pERK) in superficial dorsal horn neurons of spinal slices; format: cell-based, mice; conditions: TNF-α 10 ng/ml, 5 min
Protocol: Spinal cord slice preparation. As previously reported^39, a portion of the lumbar spinal cord (L4-L5) was removed from young mice (3-4 week old) under urethane anesthesia (1.5-2.0 g/kg, i.p.) and transverse spinal cord slices were cut (600 μm) on a vibrating microslicer. The slices were perfused with Kreb's solution (8 ml/min) for >2 h prior to experiments. Some slices were stimulated with TNF-α (10 ng/ml, 5 min), the slices were fixed with 4% paraformaldehyde for 1 h, and processed pERK immunohistochemistry using thin sections (15 μm)^13.
as §1
PERK immunohistochemistry in the spinal cord: Transverse spinal cord slices (600 μm) were cut on a vibrating microslicer. […] The stained sections were examined with a Nikon fluorescence microscope, and images were captured with a CCD Spot camera. The number of pERK-immunoreactive cells in the superficial dorsal horn (laminae I-III) was quantified in 5 spinal cord sections from each slice and averaged for that slice, and 4-5 slices from separate animals were included for data analysis^12.

## CC[C@@H](O)/C=C/C=C\C[C@@H](O)/C=C/C=C/C=C\[C@@H](O)CCCC(=O)O [RvE1, 5S,12R,18R-trihydroxyeicosapentaenoic acid]
[1]
  postoperative pain: effectively abolish
CRG-induced edema
  CRG-induced edema (paw volume): reducing
[2]
  TNF-α- and capsaicin-elicited increases in phosphorylation of ERK (pERK): abolished
ERK phosphorylation
  TNF-α-induced ERK phosphorylation in superficial dorsal horn neurons: reduced the phosphorylation
